The structures appear in SMILES notation. pIC50: −log10 of the molar value.

The target of test [1] is JAK2 (recombinant purified GST-tagged catalytic domain) (Homo sapiens (Human), UniProt O60674). In words: Jak Biochemical HTRF Assay (JAK2). The settings on record: [ATP] 8.5 μM. For orientation: Time-resolved FRET reads energy transfer from a long-lived donor to a nearby acceptor.
Test [2] has as its target JAK1 (recombinant purified GST-tagged catalytic domain) (Homo sapiens (Human), UniProt P23458). In words: Jak Biochemical HTRF Assay (JAK1). The settings on record: [ATP] 31.8 μM. Summed up: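 Compounds in DMSO were pre-equilibrated with enzyme and biotinylated peptide, then ATP was added and the reaction proceeded 120 min at room temperature. EDTA-based stop buffer with detection reagents was added, and after 60 min the time-resolved FRET ratio was read. IC50s came from 4-parameter dose–response fits.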

Sequence of JAK2 (recombinant purified GST-tagged catalytic domain) (O60674 849-1124): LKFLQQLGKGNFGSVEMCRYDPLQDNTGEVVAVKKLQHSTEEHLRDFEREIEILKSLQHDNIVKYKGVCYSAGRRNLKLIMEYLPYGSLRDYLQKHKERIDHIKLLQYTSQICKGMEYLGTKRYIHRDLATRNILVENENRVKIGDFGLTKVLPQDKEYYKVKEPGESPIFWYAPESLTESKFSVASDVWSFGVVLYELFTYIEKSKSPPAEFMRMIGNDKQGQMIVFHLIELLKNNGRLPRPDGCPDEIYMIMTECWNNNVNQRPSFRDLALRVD
Sequence of JAK1 (recombinant purified GST-tagged catalytic domain) (P23458 875-1153): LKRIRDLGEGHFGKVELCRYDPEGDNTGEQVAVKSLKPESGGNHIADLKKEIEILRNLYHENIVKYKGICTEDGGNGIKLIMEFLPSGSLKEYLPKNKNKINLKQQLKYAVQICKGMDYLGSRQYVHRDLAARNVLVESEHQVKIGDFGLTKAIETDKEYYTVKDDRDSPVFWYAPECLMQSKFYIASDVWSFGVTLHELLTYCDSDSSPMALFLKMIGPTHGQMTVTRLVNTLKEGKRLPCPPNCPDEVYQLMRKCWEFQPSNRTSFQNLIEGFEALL

As to `CO[C@@H]1CCN(C(=O)c2ccc(Nc3nn([C@]4(CC#N)CCCOC4)c4cc[nH]c(=O)c34)cc2C)C1` [Example 5-117, 2-((S)-3-(3-((4-((R)-3-methoxypyrrolidine-1-carbonyl)-3-methylphenyl)amino)-4-oxo-4,5-dihydro-1H-pyrazolo[4,3-c]pyridin-1-yl)tetrahydro-2H-pyran-3-yl)acetonitrile], the pIC50 in test [1] was 8.87; in test [2], 9.35.

For the compound `CCN(C(C)(C)C)S(=O)(=O)c1ccc(Nc2nn(C3(CC#N)CCCC3)c3cc[nH]c(=O)c23)cc1` [Example 5-135, N-(tert-butyl)-4-((1-(1-(cyanomethyl)cyclopentyl)-4-oxo-4,5-dihydro-1H-pyrazolo[4,3-c]pyridin-3-yl)amino)-N-ethylbenzene sulfonamide], the negative logarithm of the IC50 (pIC50) in test [1] was 8.82; in test [2], 9.01.

For `CN(C)S(=O)(=O)c1ccc(Nc2nn(C3(CC#N)CCN(C(=O)c4ccccc4)CC3)c3cc[nH]c(=O)c23)cc1` [Example 9-12, 4-({1-[4-(cyanomethyl)-1-(phenylcarbonyl)piperidin-4-yl]-4-oxo-4,5-dihydro-1H-pyrazolo[4,3-c]pyridin-3-yl}amino)-N,N-dimethylbenzenesulfonamide], the negative-log IC50 (pIC50) is 7.78 in test [1] and 8.77 in test [2].

`COC(=O)N1CCC(CC#N)(n2nc(Nc3ccc4ncccc4c3)c3c(=O)[nH]ccc32)CC1` [Example 5-148, methyl 4-(cyanomethyl)-4-(4-oxo-3-(quinolin-6-ylamino)-4,5-dihydro-1H-pyrazolo[4,3-c]pyridin-1-yl)piperidine-1-carboxylate]: the negative-log IC50 (pIC50) was 9.08 in test [1] and 10.10 in test [2].

For the compound `CCN(C)S(=O)(=O)c1ccc(Nc2nn([C@]3(CC#N)CC[C@@H](C(=O)OC(C)(C)C)OC3)c3cc[nH]c(=O)c23)cc1` [Example 5-92, (2S,5S)-tert-butyl 5-(cyanomethyl)-5-(3-((4-(N-ethyl-N-methylsulfamoyl)phenyl)amino)-4-oxo-4,5-dihydro-1H-pyrazolo[4,3-c]pyridin-1-yl)tetrahydro-2H-pyran-2-carboxylate], the results for the negative-log IC50 (pIC50) in test [1] and in test [2] were 9.89 and 10.05, respectively.

On to `CS(=O)(=O)c1ccc(Nc2nn([C@@]3(CC#N)CCCOC3)c3cc[nH]c(=O)c23)cc1` [Example 5-30, (R)-2-(3-(3-((4-(methylsulfonyl)phenyl)amino)-4-oxo-4,5-dihydro-1H-pyrazolo[4,3-c]pyridin-1-yl)tetrahydro-2H-pyran-3-yl)acetonitrile], for which the values for the negative logarithm of the IC50 (pIC50) in test [1] and in test [2] were 7.24 and 7.90, respectively.

Consider `N#CC[C@@]1(n2nc(Nc3ccc4nccc(F)c4c3)c3c(=O)[nH]ccc32)CCOC1` (single isomer, unassigned) [Example 5-245, [(3R or 3S)-3-{3-[(4-fluoroquinolin-6-yl)amino]-4-oxo-4,5-dihydro-1H-pyrazolo[4,3-c]pyridin-1-yl}tetrahydrofuran-3-yl]acetonitrile], for which the negative logarithm of the IC50 (pIC50) in test [1] is 7.37; in test [2] it was 8.41.

Turning to `N#CC[C@]1(n2nc(Nc3ccc([C@@]4(C(F)(F)F)CCCCN4)cc3)c3c(=O)[nH]ccc32)CCOC[C@H]1F` (single isomer, unassigned) [Example 5-264, 2-((3S,4S or 3R,4R)-3-fluoro-4-(4-oxo-3-((4-((R or S)-2-(trifluoromethyl)piperidin-2-yl)phenyl)amino)-4,5-dihydro-1H-pyrazolo[4,3-c]pyridin-1-yl)tetrahydro-2H-pyran-4-yl)acetonitrile], the negative-log IC50 (pIC50) in test [1] is 9.10; in test [2], 9.29.

Consider `CN(C)C(=O)c1ccc2cc(Nc3nn([C@]4(CC#N)CC[C@@H](C(=O)OC(C)(C)C)OC4)c4cc[nH]c(=O)c34)ccc2n1` [Example 5-238, (2S,5S)-tert-butyl 5-(cyanomethyl)-5-(3-((2-(dimethylcarbamoyl)quinolin-6-yl)amino)-4-oxo-4,5-dihydro-1H-pyrazolo[4,3-c]pyridin-1-yl)tetrahydro-2H-pyran-2-carboxylate], for which the pIC50 is 9.32 in test [1] and 9.96 in test [2].

Turning to `CC(C)NC(C)(C)c1ccc(Nc2nn([C@@]3(CC#N)CCCC[C@H]3F)c3cc[nH]c(=O)c23)cc1` [Example 5-175, [(1R,2R)-2-fluoro-1-{3-[(4-{1-methyl-1-[(1-methylethyl)amino]ethyl}phenyl)amino]-4-oxo-4,5-dihydro-1H-pyrazolo[4,3-c]pyridin-1-yl}cyclohexyl]acetonitrile], the pIC50 in test [1] was 10.22; in test [2] it was 10.05.

For the compound `CC(C)NC(C)(C)c1ccc(Nc2nn([C@]3(CC#N)CC[C@@H](C(=O)OC(C)(C)C)OC3)c3cc[nH]c(=O)c23)cc1` [Example 5-274, (2S,5S)-tert-butyl 5-(cyanomethyl)-5-(3-((4-(2-(isopropylamino)propan-2-yl)phenyl)amino)-4-oxo-4,5-dihydro-1H-pyrazolo[4,3-c]pyridin-1-yl)tetrahydro-2H-pyran-2-carboxylate], the pIC50 in test [1] is 9.59; in test [2] it was 9.44.

With `Cc1cc(Nc2nn([C@]3(CC#N)CCCOC3)c3cc[nH]c(=O)c23)ccc1C(=O)N1CCCC[C@H]1C` [Example 20-3, 2-((S)-3-(3-((3-methyl-4-((R)-2-methylpiperidine-1-carbonyl)phenyl)amino)-4-oxo-4,5-dihydro-1H-pyrazolo[4,3-c]pyridin-1-yl)tetrahydro-2H-pyran-3-yl)acetonitrile], the pIC50 was 9.08 in test [1] and 9.19 in test [2].

`CC(C)(C)OC(=O)N1CCC(CC#N)(n2nc(Nc3ccc(F)cc3)c3c(=O)[nH]ccc32)CC1` [Example 5-48, tert-butyl 4-(cyanomethyl)-4-{3-[(4-fluorophenyl)amino]-4-oxo-4,5-dihydro-1H-pyrazolo[4,3-c]pyridin-1-yl}piperidine-1-carboxylate]: the figures for the negative logarithm of the IC50 (pIC50) in test [1] and in test [2] were 8.65 and 9.66, respectively.

In the case of `CN(C)S(=O)(=O)c1ccc(Nc2nn(C3(CC#N)CCOCC3)c3cc[nH]c(=O)c23)cc1` [Example 5-254, 4-((1-(4-(cyanomethyl)tetrahydro-2H-pyran-4-yl)-4-oxo-4,5-dihydro-1H-pyrazolo[4,3-c]pyridin-3-yl)amino)-N,N-dimethylbenzenesulfonamide], the pIC50 is 8.85 in test [1] and 9.18 in test [2].

In the case of `CNc1nn(C2(CC#N)CCN(C(=O)OC(C)(C)C)CC2)c2cc[nH]c(=O)c12` [Example 2-5, tert-butyl 4-(cyanomethyl)-4-[3-(methylamino)-4-oxo-4,5-dihydro-1H-pyrazolo [4,3-c]pyridin-1-yl] piperidine-1-carboxylate], the figures for the pIC50 in test [1] and in test [2] were 6.31 and 7.69, respectively.

On to `CC(C)(C)OC(=O)N1CC[C@](CC#N)(n2nc(Nc3ccc([C@@H](O)C(F)(F)F)cc3)c3c(=O)[nH]ccc32)[C@H](F)C1` (single isomer, unassigned) [Example 5-21, tert-butyl (3R,4R)-4-(cyanomethyl)-3-fluoro-4-[4-oxo-3-({4-[(1R or 1S)-2,2,2-trifluoro-1-hydroxyethyl]phenyl}amino)-4,5-dihydro-1H-pyrazolo[4,3-c]pyridin-1-yl]piperidine-1-carboxylate], for which the pIC50 is 9.85 in test [1] and 9.82 in test [2].

Turning to `CC(C)NC(c1ccc(Nc2nn([C@]3(CC#N)CC[C@@H](C(=O)OC(C)(C)C)OC3)c3cc[nH]c(=O)c23)cc1)C(F)(F)F` (single isomer, unassigned) [Example 5-210, (2S,5S)-tert-butyl 5-(cyanomethyl)-5-(4-oxo-3-((4-((R or S)-2,2,2-trifluoro-1-(isopropylamino)ethyl)phenyl)amino)-4,5-dihydro-1H-pyrazolo[4,3-c]pyridin-1-yl)tetrahydro-2H-pyran-2-carboxylate], the pIC50 in test [1] is 9.29; in test [2] it was 9.39.

With `N#CC[C@]1(n2nc(Nc3ccc(Cl)cc3)c3c(=O)[nH]ccc32)CC[C@H](N2CC(F)C2)CC1` [Example 18-6, Trans 2-(1-(3-((4-chlorophenyl)amino)-4-oxo-4,5-dihydro-1H-pyrazolo[4,3-c]pyridin-1-yl)-4-(3-fluoroazetidin-1-yl)cyclohexyl)acetonitrile], the pIC50 in test [1] was 8.76; in test [2] it was 10.05.

As to `CN1Cc2cc(Nc3nn([C@]4(CC#N)CC[C@@H](N(C)C)CC4)c4cc[nH]c(=O)c34)ccc2S1(=O)=O` [Example 18-34, Trans 2-(4-(Dimethylamino)-1-(3-((2-methyl-1,1-dioxido-2,3-dihydrobenzo-[d]isothiazol-6-yl)amino)-4-oxo-4,5-dihydro-1H-pyrazolo[4,3-c]pyridin-1-yl)cyclohexyl)acetonitrile], the negative-log IC50 (pIC50) in test [1] is 7.92; in test [2], 8.97.

Consider `N#CC[C@]1(n2nc(Nc3ccc(Cl)cc3)c3c(=O)[nH]ccc32)CC[C@H](NCC(F)(F)F)CC1` [Example 18-11, Trans 2-(1-(3-((4-chlorophenyl)amino)-4-oxo-4,5-dihydro-1H-pyrazolo[4,3-c]pyridin-1-yl)-4-((2,2,2-trifluoroethyl)amino)cyclohexyl)acetonitrile], for which the negative-log IC50 (pIC50) is 8.66 in test [1] and 9.66 in test [2].

With `COC(=O)N1CCC(CC#N)(n2nc(Nc3ccc4c(c3)CN(CC3CCCC3)S4(=O)=O)c3c(=O)[nH]ccc32)CC1` [Example 5-75, methyl 4-(cyanomethyl)-4-(3-{[2-(cyclopentylmethyl)-1,1-dioxo-2,3-dihydro-1,2-benzothiazol-5-yl]amino}-4-oxo-1H,4H,5H-pyrazolo [4,3-c]pyridin-1-yl) piperidine-1-carboxylate], the results for the pIC50 in test [1] and in test [2] were 9.43 and 9.92, respectively.

With `CC(C)(C)NS(=O)(=O)c1ccc(Nc2nn(C3(CC#N)CCN(C(=O)C(C)(F)F)CC3)c3cc[nH]c(=O)c23)cc1` [Example 5-56, N-(tert-butyl)-4-((1-(4-(cyanomethyl)-1-(2,2-difluoropropanoyl)piperidin-4-yl)-4-oxo-4,5-dihydro-1H-pyrazolo[4,3-c]pyridin-3-yl)amino)benzene-sulfonamide], the values for the negative-log IC50 (pIC50) in test [1] and in test [2] were 9.72 and 9.92, respectively.

What is called pIC50 is −log10 of the IC50, conventionally taken in molar units.

Values taken from US9957264B2 (Merck Sharp & Dohme Corp., priority 2013, dated 2018).
